Data reported in publication PMC12381739, “Druglike Molecular Degraders of the Oncogenic RNA-Binding Protein HuR” (JACS Au, 2025).

Test system: MCF-7 cells
Assay: Caspase-Glo 3/7 apoptosis assay
Assay type: cell-based, human
Details: MCF-7, 10 nM
Excerpt: To elucidate the decrease in cell viability observed, we evaluated the potential increase in apoptosis using the […] Caspase-Glo 3/7 assay system. Upon cell lysis, active caspases cleave a luminogenic substrate, releasing aminoluciferin, which is subsequently converted to light by luciferase. The intensity of the signal directly correlates with the levels of apoptosis. […] This destabilization reduces the levels of proteins essential for cancer cell survival, resulting in cumulative cellular stress, diminished proliferation, and enhanced cytotoxicity. […] This enhanced effect is likely due to the catalytic nature of the molecular glue degraders, offering promising potential for cancer treatment.
MCF-7 cells were seeded in 96-well plates to 80% confluency and treated with synthesized compounds at four concentrations (1 nM–1 μM) for 24 and 48 h. Cell apoptosis was analyzed using the Caspase-Glo 3/7 Assay System (Promega, G8090). Each sample was incubated with Caspase-Glo 3/7 solution for 1 h, followed by luminescence measurement. Luminescence was measured […] using the Synergy H1 Hybrid Multi-Mode Microplate Reader (Biotek, Agilent). Cell apoptosis was calculated as the percent increase in luminescence of treated cells compared to untreated controls. All experiments were performed in triplicate.

With `O=C1CCC(N2C(=O)c3cccc(NCc4cn(-c5ccc6sc(C(=O)O)cc6c5)nn4)c3C2=O)C(=O)N1` (stereo not shown) [PRO-HuR3] the “apoptosis (caspase 3/7)” value was “significant increase in apoptosis”.
